Assay results taken from BindingDB's records for PubMed 34029774 (Dpsr University, 2021).

Columns and labels:
[1] = target: Prostaglandin G/H synthase 2 (Ovis aries); experiment: Inhibition of ovine COX-2 colorimetric enzyme immunoassay
[2] = target: Prostaglandin G/H synthase 2 (Ovis aries); experiment: Inhibition of ovine COX-2 using arachidonic acid as substrate measured after 2 mins by colorimetric enzyme immune assay
[3] = target: Prostaglandin G/H synthase 2 (Ovis aries); experiment: Inhibition of ovine COX-2 by colorimetric inhibitor screening assay
[4] = target: Prostaglandin G/H synthase 2 (Homo sapiens) (UniProt P35354); experiment: Binding affinity to human recombinant COX-2 assessed as inhibition constant preincubated for 5 mins followed by arachidonic acid addition measured every 30 sec for 10 mins by fluorescence based assay
Chain of Prostaglandin G/H synthase 2 (Homo sapiens) (P35354 whole entry, looked up): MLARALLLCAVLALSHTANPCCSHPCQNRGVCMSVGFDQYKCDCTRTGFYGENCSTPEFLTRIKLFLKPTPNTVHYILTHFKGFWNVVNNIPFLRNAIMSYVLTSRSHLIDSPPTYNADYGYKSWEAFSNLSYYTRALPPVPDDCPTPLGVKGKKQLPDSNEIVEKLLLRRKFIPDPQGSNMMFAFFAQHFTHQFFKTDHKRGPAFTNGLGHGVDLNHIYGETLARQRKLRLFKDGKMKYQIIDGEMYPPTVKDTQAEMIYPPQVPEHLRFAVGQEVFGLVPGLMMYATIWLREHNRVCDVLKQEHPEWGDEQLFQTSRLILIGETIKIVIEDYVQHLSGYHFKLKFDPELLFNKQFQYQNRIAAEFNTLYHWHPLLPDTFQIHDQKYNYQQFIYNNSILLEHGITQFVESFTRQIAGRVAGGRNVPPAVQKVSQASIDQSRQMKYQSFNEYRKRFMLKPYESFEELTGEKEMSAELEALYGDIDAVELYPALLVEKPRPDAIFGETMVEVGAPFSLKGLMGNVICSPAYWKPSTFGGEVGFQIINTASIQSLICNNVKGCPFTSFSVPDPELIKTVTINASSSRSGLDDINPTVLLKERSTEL

Row | SMILES | IC50 [1] [nM] | IC50 [2] [nM] | also measured
1 | COc1ccc2cc(C(C)C(=O)O/N=C(\N)c3ccc(Cl)cc3)ccc2c1 (stereo unspecified) | 7.2 |  | 
2 | CC1=C(CC(=O)Sc2ccccc2)c2cc(F)ccc2/C1=C\c1ccc([S+](C)[O-])cc1 (stereo unspecified) |  |  | IC50 [3]: 1200 nM
3 | C/C(=N/Nc1ccc(C(=O)O)cc1)c1cccc(N2C(=O)c3ccccc3C2=O)c1 |  | 110 | 
4 | C=C(/C=C\C)/C(CSc1nnc(-c2cc(-c3ccc(OC)cc3)nc3ccccc23)n1-c1ccccc1)=N\O |  |  | Ki [4]: 94600 nM

Further lines, with some results ahead:

Row | IC50 [1] [nM] | IC50 [2] [nM] | SMILES | also measured
5 |  | 170 | COc1ccc(/C=C/C(=O)c2cccc(N3C(=O)c4ccccc4C3=O)c2)cc1OC | 
6 | 6.4 |  | COc1ccc2cc(C(C)C(=O)O/N=C(\N)c3ccc(OC)c(OC)c3)ccc2c1 (stereo unspecified) | 
